Measurements reported in article PMC5469273, “Discovery of Novel Small-Molecule Inhibitors of LIM Domain Kinase for Inhibiting HIV-1” (Journal of Virology, 2017).

Columns and labels:
[1] = in vitro; conditions: human
[2] = test system: EBOV (Zaire); format: cell-based, Zaire ebolavirus; conditions: HFF-1 cells, pretreated 2 h, MOI 2.5, 48 h in continuous presence
[3] = molecular target: MEK1 (Homo sapiens, UniProt Q02750); test: Kinase profiling (Reaction Biology): MEK1
[4] = molecular target: ABL1 (Homo sapiens, UniProt P00519); test: Kinase profiling (Reaction Biology): ABL1
[5] = molecular target: GSK3b (Homo sapiens, UniProt P49841); test: Kinase profiling (Reaction Biology): GSK3b
[6] = molecular target: LRRK2 (G2019S) (Homo sapiens, UniProt Q5S007, G2019S); test: Kinase profiling (Reaction Biology): LRRK2 (G2019S)
[7] = molecular target: AKT2 (Homo sapiens, UniProt P31751); test: Kinase profiling (Reaction Biology): AKT2
[8] = test system: cofilin serine 3 phosphorylation; test: Western blotting for cofilin serine 3 phosphorylation in CEM-SS T cells; conditions: 100 μM, time course
[9] = molecular target: RET (Homo sapiens, UniProt P07949); test: Kinase profiling (Reaction Biology): RET
[10] = molecular target: DAPK1 (Homo sapiens, UniProt P53355); test: Kinase profiling (Reaction Biology): DAPK1
[11] = molecular target: c-Kit (Homo sapiens, UniProt P10721); test: Kinase profiling (Reaction Biology): c-Kit
[12] = test system: RVFV-Luc (MP12); test: microbe, parasite or virus in culture; format: cell-based; conditions: Rift Valley fever virus, Vero, 24 h, read-out: IC50, inhibition of RVFV
[13] = test system: HIV-1(Env); test: 2-LTR circles by real-time PCR (nuclear migration) in CEM-SS T cells; format: cell-based
[14] = molecular target: TLK1 (Homo sapiens, UniProt Q9UKI8); test: Kinase profiling (Reaction Biology): TLK1
[15] = molecular target: LIMK1 (Homo sapiens, UniProt P53667); test: LIMK1 biochemical assay, 10-dose IC50; set-up: purified from insect cells; His; purchased Reaction Biology Corporation, Malvern, PA; host or cells: insect cells (coexpressed with ROCK1); conditions: purified LIMK1; 10 μM ATP, 1 μM cofilin; ≥2 in vitro kinase assays; read-out: LIMK1 Biochemical Inhibition IC50
Description: We selected R10015 from the potential LIMK inhibitors for further detailed mechanistic studies. The synthesis, purification, and biochemical characterization of R10015 are described in Materials and Methods below and shown in Fig. 3. We performed a cell-free assay to measure R10015 inhibition of the LIM domain kinase using purified human LIMK1 and its substrate, cofilin. […] We also performed profiling of R10015 against a panel of 62 kinases (Table 2).
Biochemical LIMK1 assays for all inhibitors were carried out by Reaction Biology Corporation, Malvern, PA, and followed the protocols described on its website. […] Reactions were carried out at 10 μM ATP, 1 μM substrate (cofilin), and 50 nM LIMK1 (final concentrations). […] The reagents were as follows: base reaction buffer, 20 mM HEPES (pH 7.5), 10 mM MgCl2, 1 mM EGTA, 0.02% Brij 35, 0.02 mg/ml bovine serum albumin (BSA), 0.1 mM Na3VO4, 2 mM dithiothreitol (DTT), 1% DMSO. No additional cofactors were added to the reaction mixture. The reaction procedures were as follows. (i) The indicated substrate was prepared in freshly made base reaction buffer. (ii) Any required cofactors were delivered to the substrate solution described above. (iii) The indicated kinase was delivered into the substrate solution and gently mixed. (iv) The compounds in DMSO were delivered into the kinase reaction mixture. (v) [^33P]ATP (final specific activity, 0.01 μCi/μl) was delivered into the reaction mixture to initiate the reaction. […] (viii) The filters were washed extensively in 0.1% phosphoric acid.

[16] = molecular target: TAK1 (Homo sapiens, UniProt O43318); test: Kinase profiling (Reaction Biology): TAK1
[17] = test system: HSV-1; test: HSV-1 plaque assay in Vero cells; format: cell-based, herpes simplex virus 1
[18] = molecular target: PDGFRb (Homo sapiens, UniProt P09619); test: Kinase profiling (Reaction Biology): PDGFRb
[19] = molecular target: c-MET (Homo sapiens, UniProt P08581); test: Kinase profiling (Reaction Biology): c-MET
[20] = test system: HIV-1(NL4-3); test: microbe, parasite or virus in culture; format: cell-based; conditions: Human immunodeficiency virus 1, NL43; pretreated 1 h, HIV-1(NL4-3) 3 h, washed, 48 h; luciferase; read-out: IC50, inhibition of HIV
[21] = molecular target: FGFR1 (Homo sapiens, UniProt P11362); test: Kinase profiling (Reaction Biology): FGFR1
[22] = molecular target: IGF1R (Homo sapiens, UniProt P08069); test: Kinase profiling (Reaction Biology): IGF1R
[23] = test system: CD4; test: Surface staining of CD4 on CEM-SS T cells; format: cell-based, human; conditions: 100 μM
[24] = test system: CXCR4; test: Surface staining of CXCR4 on CEM-SS T cells; format: cell-based, human; conditions: 100 μM, 1 h
[25] = molecular target: AMPK(A1/B1/G1) (Homo sapiens, UniProt Q13131); test: Kinase profiling (Reaction Biology): AMPK(A1/B1/G1)
[26] = molecular target: STK33 (Homo sapiens, UniProt Q9BYT3); test: Kinase profiling (Reaction Biology): STK33
[27] = molecular target: EPHA3 (Homo sapiens, UniProt P29320); test: Kinase profiling (Reaction Biology): EPHA3

Sequence of LRRK2 (G2019S) (Q5S007 whole entry G2019S): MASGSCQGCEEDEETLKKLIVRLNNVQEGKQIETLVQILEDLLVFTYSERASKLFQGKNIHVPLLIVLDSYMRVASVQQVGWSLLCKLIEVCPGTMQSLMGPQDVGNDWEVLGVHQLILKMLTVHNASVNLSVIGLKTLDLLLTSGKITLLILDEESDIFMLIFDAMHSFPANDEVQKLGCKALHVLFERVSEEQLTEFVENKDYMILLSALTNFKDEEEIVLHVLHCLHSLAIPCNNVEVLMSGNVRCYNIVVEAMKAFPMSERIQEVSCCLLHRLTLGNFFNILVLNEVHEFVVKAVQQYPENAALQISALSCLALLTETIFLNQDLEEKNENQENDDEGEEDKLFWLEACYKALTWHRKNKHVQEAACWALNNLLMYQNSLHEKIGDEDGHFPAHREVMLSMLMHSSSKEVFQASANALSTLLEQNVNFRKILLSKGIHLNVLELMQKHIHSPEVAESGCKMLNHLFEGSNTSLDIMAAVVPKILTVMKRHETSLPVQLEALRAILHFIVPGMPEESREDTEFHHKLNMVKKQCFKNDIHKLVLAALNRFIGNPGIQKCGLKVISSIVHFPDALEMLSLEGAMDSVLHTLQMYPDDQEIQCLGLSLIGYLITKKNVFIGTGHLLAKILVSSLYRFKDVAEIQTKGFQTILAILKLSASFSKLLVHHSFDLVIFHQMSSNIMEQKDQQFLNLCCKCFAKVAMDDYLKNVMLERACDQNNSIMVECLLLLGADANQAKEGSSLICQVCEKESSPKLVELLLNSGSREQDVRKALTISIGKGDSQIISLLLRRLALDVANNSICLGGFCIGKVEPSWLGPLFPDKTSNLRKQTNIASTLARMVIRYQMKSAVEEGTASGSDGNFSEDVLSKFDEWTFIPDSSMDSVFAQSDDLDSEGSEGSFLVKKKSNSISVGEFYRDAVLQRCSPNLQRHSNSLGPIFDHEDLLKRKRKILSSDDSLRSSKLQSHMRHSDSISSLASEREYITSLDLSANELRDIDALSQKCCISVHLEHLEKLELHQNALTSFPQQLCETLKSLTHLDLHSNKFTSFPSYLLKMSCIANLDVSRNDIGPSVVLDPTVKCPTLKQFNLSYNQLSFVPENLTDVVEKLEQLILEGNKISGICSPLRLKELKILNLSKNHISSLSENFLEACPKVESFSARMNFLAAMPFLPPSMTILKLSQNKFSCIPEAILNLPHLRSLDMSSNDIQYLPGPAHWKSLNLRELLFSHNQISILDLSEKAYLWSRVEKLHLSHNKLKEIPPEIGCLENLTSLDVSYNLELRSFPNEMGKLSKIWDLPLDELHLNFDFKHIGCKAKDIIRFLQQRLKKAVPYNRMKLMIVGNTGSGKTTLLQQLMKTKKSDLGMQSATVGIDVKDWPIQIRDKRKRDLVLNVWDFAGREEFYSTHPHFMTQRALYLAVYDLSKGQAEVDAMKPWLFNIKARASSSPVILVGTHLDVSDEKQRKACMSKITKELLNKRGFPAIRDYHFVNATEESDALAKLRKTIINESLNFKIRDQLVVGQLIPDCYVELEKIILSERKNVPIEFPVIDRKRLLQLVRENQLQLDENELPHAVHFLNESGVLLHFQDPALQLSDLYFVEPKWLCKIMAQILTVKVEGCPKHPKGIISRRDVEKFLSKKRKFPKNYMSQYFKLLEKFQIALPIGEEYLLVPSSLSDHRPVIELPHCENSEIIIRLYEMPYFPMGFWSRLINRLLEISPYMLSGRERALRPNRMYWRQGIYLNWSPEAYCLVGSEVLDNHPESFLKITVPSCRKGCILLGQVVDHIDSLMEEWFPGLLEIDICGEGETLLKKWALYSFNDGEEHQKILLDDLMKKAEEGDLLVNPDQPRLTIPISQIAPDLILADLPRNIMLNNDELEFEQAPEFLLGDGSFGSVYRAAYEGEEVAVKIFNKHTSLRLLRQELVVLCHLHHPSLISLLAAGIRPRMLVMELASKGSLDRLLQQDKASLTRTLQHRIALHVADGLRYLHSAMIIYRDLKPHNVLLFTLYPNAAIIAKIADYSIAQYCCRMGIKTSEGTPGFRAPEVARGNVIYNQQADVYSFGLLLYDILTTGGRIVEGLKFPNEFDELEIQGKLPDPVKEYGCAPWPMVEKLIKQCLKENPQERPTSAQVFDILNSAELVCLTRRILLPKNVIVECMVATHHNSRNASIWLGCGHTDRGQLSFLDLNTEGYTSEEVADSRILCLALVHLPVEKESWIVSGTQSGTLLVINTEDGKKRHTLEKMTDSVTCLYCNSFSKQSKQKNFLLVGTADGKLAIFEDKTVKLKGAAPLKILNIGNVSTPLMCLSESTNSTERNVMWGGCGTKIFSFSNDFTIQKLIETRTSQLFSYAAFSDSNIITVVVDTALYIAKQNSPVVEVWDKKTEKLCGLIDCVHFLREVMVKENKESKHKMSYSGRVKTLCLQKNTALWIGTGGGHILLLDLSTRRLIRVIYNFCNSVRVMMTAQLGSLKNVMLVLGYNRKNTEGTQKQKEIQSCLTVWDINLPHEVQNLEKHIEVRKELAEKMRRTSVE
Sequence of AMPK(A1/B1/G1) (Q13131 whole entry): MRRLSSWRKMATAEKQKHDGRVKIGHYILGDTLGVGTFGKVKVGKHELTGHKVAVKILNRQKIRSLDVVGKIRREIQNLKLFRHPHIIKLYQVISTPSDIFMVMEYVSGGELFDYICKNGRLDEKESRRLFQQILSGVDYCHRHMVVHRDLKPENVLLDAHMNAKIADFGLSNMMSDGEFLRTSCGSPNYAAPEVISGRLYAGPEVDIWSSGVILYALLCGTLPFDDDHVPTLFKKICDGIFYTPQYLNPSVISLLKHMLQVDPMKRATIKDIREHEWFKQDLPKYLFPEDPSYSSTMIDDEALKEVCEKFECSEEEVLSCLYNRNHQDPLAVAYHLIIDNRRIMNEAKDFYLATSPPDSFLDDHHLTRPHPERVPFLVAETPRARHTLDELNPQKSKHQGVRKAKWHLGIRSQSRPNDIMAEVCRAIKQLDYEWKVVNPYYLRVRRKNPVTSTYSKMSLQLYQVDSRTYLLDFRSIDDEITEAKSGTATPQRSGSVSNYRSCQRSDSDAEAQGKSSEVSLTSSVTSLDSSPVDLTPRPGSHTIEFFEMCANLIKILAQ
Sequence of AMPK(A1/B1/G1) (Q9Y478 whole entry partner): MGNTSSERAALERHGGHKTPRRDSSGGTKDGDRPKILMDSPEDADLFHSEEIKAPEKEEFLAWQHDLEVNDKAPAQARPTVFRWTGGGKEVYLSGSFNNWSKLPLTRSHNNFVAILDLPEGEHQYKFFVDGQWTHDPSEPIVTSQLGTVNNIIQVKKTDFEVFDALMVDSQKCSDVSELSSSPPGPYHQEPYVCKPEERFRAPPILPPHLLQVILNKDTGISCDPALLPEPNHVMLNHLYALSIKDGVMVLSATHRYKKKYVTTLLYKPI
Sequence of AMPK(A1/B1/G1) (P54619 whole entry partner): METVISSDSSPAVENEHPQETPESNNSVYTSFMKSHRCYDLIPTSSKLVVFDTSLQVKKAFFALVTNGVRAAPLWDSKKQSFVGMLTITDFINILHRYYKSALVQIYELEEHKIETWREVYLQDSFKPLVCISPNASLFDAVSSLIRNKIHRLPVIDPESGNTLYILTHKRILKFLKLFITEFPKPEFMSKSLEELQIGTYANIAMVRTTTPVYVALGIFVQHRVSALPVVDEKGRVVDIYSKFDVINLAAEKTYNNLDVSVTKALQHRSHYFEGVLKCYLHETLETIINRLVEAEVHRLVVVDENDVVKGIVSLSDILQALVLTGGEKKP
Sequence of LIMK1 (P53667 285-638): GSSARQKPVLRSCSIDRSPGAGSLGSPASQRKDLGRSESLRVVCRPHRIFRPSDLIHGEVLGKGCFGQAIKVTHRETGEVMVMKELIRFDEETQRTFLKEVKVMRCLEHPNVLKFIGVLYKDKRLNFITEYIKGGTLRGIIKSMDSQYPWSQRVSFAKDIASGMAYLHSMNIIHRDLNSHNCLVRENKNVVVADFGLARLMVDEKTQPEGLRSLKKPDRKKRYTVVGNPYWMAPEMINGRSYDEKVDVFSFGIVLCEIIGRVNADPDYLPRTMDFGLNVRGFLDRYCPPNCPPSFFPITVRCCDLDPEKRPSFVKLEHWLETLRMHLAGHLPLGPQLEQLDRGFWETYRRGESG
Sequence of GSK3b (P49841 whole entry): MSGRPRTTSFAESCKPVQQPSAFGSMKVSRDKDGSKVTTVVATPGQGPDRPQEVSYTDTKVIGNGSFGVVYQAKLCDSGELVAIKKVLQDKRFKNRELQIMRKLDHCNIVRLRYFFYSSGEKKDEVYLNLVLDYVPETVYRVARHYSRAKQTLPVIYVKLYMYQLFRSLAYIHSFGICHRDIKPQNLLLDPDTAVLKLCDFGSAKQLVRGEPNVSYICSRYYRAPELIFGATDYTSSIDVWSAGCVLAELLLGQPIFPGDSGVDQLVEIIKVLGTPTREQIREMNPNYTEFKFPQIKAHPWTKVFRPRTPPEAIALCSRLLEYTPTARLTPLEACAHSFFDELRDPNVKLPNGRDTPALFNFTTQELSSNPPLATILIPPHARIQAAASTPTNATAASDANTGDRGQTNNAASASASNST
Sequence of STK33 (Q9BYT3 whole entry): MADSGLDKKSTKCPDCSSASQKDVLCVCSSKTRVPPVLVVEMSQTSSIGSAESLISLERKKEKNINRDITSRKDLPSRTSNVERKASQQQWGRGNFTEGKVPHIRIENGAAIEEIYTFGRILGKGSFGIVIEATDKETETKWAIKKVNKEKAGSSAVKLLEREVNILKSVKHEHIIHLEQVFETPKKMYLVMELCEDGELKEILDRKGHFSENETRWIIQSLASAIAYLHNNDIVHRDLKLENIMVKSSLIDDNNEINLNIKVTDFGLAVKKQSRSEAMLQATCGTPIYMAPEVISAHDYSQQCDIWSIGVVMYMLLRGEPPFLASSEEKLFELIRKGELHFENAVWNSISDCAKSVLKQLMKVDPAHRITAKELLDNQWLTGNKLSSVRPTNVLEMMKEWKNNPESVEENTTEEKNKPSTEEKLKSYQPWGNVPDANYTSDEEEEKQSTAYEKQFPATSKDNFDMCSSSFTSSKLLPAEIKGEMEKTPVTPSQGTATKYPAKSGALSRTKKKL

With COC(=O)c1ccc2[nH]c(C3CCN(c4ncnc5[nH]cc(Cl)c45)CC3)nc2c1 [Compound R10015, Methyl 2-(1-(5-chloro-7H-pyrrolo[2,3-d]pyrimidin-4-yl)piperidin-4-yl)-1H-benzo[d]imidazole-5-carboxylate] the viability at 100 µM [1] was 89.2%, the “inhibition of EBOV” value [2] was “dose-dependent inhibition” and the activity at 1 µM [3] was 75.6%. It also gave an activity at 1 µM [4] of 89.2%, an activity at 1 µM [5] of 67.8% and an activity at 1 µM [6] of 6.7%. The inhibition at 1 µM ([6]; read-out: inhibition of LRRK2) was ≥ 90%, the activity at 1 µM [7] was 73.1% and the “cofilin serine 3 phosphorylation” value [8] was “drastic inhibition”. For the same compound, the activity at 1 µM [9] was 46.5%, the activity at 1 µM [10] was 87.8% and the activity at 1 µM [11] was 81.3%. For the same compound, the IC50 [12] was ~12.5 µM, the “viral nuclear migration (2-LTR circles)” value [13] was “inhibited” and the activity at 1 µM [14] was 98.5%. The IC50 [15] was 38 ± 5 nM, the activity at 1 µM [16] was 82.4% and the “inhibition of HSV-1 (viral plaques)” value [17] was “inhibition”. The activity at 1 µM [18] was 78.6%, the activity at 1 µM [19] was 82.1% and the IC50 [20] was 14.9 µM. The activity at 1 µM [21] was 86.5%, the activity at 1 µM [22] was 90% and the “surface expression of CD4” value ([23]; 1 h) was “did not alter”. For the same compound, the “surface density of CD4” value ([23]; prolonged treatment 4 h) was “slightly decreased”, the “surface expression of CXCR4” value [24] was “did not alter” and the activity at 1 µM [25] was 76.6%. It also gave an activity at 1 µM [26] of 56.5% and an activity at 1 µM [27] of 91.1%.
